Measurements from PubChem BioAssay AID652199 (Broad Institute, 2013).
Active and inactive are the calls of the source.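 How the source made its calls: active means half-maximal inhibitory concentration AC50 at or below 30 µM; inactive means the rest, including compounds with no fitted curve.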

These compounds were tested against Protein disulfide-isomerase (Homo sapiens) (UniProt P07237) (assay: PDI inhibitors, insulin aggregation turbidity, confirmation, biochemical, dry powder samples, set 3 (AID 652199)). Conditions: absorbance 650 nm, 90 min.
Chain of Protein disulfide-isomerase (Homo sapiens) (P07237 whole entry, looked up): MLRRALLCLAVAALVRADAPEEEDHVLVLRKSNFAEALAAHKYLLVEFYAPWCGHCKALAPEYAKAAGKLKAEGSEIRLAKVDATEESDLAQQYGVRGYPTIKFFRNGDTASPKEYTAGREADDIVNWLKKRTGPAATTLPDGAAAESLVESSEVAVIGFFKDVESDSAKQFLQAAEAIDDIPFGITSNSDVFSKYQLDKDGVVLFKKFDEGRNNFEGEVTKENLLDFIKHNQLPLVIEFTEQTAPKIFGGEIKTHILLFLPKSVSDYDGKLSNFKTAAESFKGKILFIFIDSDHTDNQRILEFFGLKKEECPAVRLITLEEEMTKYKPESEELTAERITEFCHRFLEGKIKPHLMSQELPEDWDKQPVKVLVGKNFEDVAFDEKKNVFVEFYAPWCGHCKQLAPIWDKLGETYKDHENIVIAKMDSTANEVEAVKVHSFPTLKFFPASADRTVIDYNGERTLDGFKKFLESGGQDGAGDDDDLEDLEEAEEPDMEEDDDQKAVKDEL

Row | Structure (SMILES) | AC50
1 | C/C1=C\C[C@H](OC(=O)c2ccc(O)cc2)/C(C)=C/[C@@H](O)C(C)(C)CCC1 | 5 µM
2 | C/C1=C\[C@@H](O)C(C)(C)CCCC2(C)OC2C[C@@H]1OC(=O)c1ccc(O)cc1 (some centres not stated) | 1.5 µM
3 | CCOC(=O)C1(CCOc2ccccc2)CCN(Cc2ccc(O)c(Cl)c2)CC1 | 0.4 µM
4 | CCN(C)C(=O)C1(CCOc2ccccc2)CCN(Cc2ccc(O)c(Cl)c2)CC1 | 3 µM
5 | CCOC(=O)C1(CCOc2ccccc2)CCN(C(=O)c2ccc(O)c(Cl)c2)CC1 | 1.5 µM
6 | O=C(NC1CCCC1)C1(CCOc2ccccc2)CCN(Cc2ccc(O)c(Cl)c2)CC1 | 3 µM
7 | CCOC(=O)c1c(CN2CCN(CCO)CC2)n(-c2ccccc2)c2cc(Br)c(O)cc12 | 3 µM
8 | CCOC(=O)C1(CCOc2ccccc2)CCN(Cc2ccc(O)cc2)CC1 | 20 µM
9 | O=C(Nc1ccccc1)C1(CCOc2ccccc2)CCN(Cc2ccc(O)c(Cl)c2)CC1 | 30 µM
10 | CC(C)(C)OC(=O)C1(CCOc2ccccc2)CCN(Cc2ccc(O)c(Cl)c2)CC1 | 0.7 µM
11 | CCOC(=O)C1(CCOc2ccccc2)CCN(Cc2ccc(OC)c(Cl)c2)CC1 | > 30 µM (inactive)
12 | CC(C)OC(=O)C1(CCOc2ccccc2)CCN(Cc2ccc(O)c(Cl)c2)CC1 | 0.7 µM
